Laboratory results as given in PMC7217150, “Synthesis, Modification, and Biological Evaluation of a Library of Novel Water‐Soluble Thiopyridone‐Based Organometallic Complexes and Their Unexpected (Biological) Behavior” (Chemistry (Weinheim an Der Bergstrasse, Germany), 2020).
Where two headings read alike, the source gives them in different places.

Experiments:
[1] = pH 7.2
Procedure: Stock solutions containing the desired complex in DMSO (5 mM) were diluted with phosphate buffer (pH 7.2) to a final concentration of […] compound in 1 % DMSO/20 mM buffer and directly analyzed by four different isocratic UHPLC runs (Δ=5 %). The lipophilicity parameters logkw and lipophilicity indices φ0 were calculated according to literature.7, 37

[2] = test system: CH1/PA‐1; assay: MTT cytotoxicity assay, monolayer culture; type: cell-based, human; conditions: CH1/PA‐1, MTT assay, exposure time 96 h, means ± SDs
From the text: (§1) A549 (non‐small cell lung carcinoma), SW480 and HCT‐116 (both colon carcinoma) were kindly provided by Brigitte Marian, Institute of Cancer Research, Department of Medicine I, Medical University of Vienna, Austria. The cell line CH1/PA‐1 (ovarian teratocarcinoma) was kindly provided by Lloyd R. Kelland (CRC Centre for Cancer Therapeutics, Institute of Cancer Research, Sutton, UK). All cell culture media (including supplements) and reagents were obtained from Sigma–Aldrich, and all plasticware from StarLab, unless indicated otherwise.

[3] = test system: A549; assay: MTT cytotoxicity assay, monolayer culture; type: cell-based, human; conditions: exposure time 96 h, means ± SDs
From the text: as §1

[4] = test system: SW480; assay: MTT cytotoxicity assay, monolayer culture; type: cell-based, human
From the text: as §1

[5] = test system: CH1/PA‐1; assay: Cell cycle distribution, flow cytometry with propidium iodide; type: cell-based, human; conditions: for Cell cycle distribution G1, % / Cell cycle distribution G2/M, % / Cell cycle distribution S, %: 24 h, mean ± SD; for Relative change in cell cycle distribution G1, % / Relative change in cell cycle distribution G2/M, % / Relative change in cell cycle distribution S, %: difference to untreated control
Procedure: (§2) The influence of two ligands, as well as seven complexes on cell cycle distribution was tested in two of the cancer cell lines (SW480, CH1/PA‐1) by means of flow cytometry. The cell cycle distribution (G1, S, G2/M phase in %; Table S37) was investigated upon DNA staining with propidium iodide.
(§3) CH1/PA‐1 and SW480 cells were harvested by trypsinization, 8×10^4 and 1.2×10^5 cells per well were seeded into 12‐well plates, respectively. The cells were allowed to attach and resume proliferation for 24 h after the seeding. […] After continuous exposure for 24 h at 37 °C and under 5 % CO2, the cells were harvested by trypsinization and centrifuged at 300 g for 3 min. The cells were washed with PBS (1 mL) and resuspended in propidium iodine (PI) containing HSF buffer (600 μL; 0.1 % Triton X‐100, 0.1 % sodium citrate, 50 μg mL^−1 PI in PBS). After incubation overnight at 4 °C in the dark, 5×10^3 cells were measured by flow cytometry with a Millipore Guava easyCyte 8HT instrument (Luminex, USA). Data were evaluated by means of FlowJo software (Tree Star) using Watson Pragmatic algorithms.60 The fitting of the curve was chosen to keep the root mean square error between 1.0 and 2.0, alongside with good fitting visual model.

[6] = test system: SW480; assay: as above; type: cell-based, human; conditions: for Cell cycle distribution G1, % / Cell cycle distribution G2/M, % / Cell cycle distribution S, %: 24 h, mean ± SD; for Relative change in cell cycle distribution G1, % / Relative change in cell cycle distribution G2/M, % / Relative change in cell cycle distribution S, %: difference to untreated control; for decrease in G1 phase: SW480 cells
Procedure: as §2, §3

[7] = test system: SW480 cells; conditions: ICP‐MS, 2 h exposure
[8] = test system: CH1/PA‐1; conditions: CH1/PA‐1 multicellular spheroids, 96 h drug exposure
Procedure: (§4) A549, CH1/PA‐1 and SW480 cells were grown in MEM supplemented with 10 % fetal calf serum (FCS; from Biowest), 1 mM sodium pyruvate, 4 mM L‐glutamine and 1 % v/v nonessential amino acids (from 100×solution) and L‐glutamine. HCT‐116 cells were maintained in McCoy's 5a medium supplemented with 10 % FCS and L‐glutamine. Adherent monolayer cultures were grown in 75 cm^2 flasks. For spheroid culture, A549, CH1/PA‐1 and HCT‐116 cells were harvested from culture flasks by trypsinization, resuspended in their respective supplemented medium and seeded in ultra‐low attachment round‐bottom 96‐well plates (Corning Costar) at a density of 500 viable cells per well. Plates were incubated for 96 h to allow spheroid formation prior to use for the tests. All cultures were incubated in a humidified incubator at 37 °C with 5 % CO2.
(§5) Cytotoxicity in multicellular spheroids was determined by the fluorimetric resazurin assay. […] After incubation for 96 h, 20 μL of a 440 μM resazurin sodium salt solution in PBS were added to each well, and the plates were incubated for further 16 h. Fluorescence was measured with a Synergy HT reader (BioTek) with an excitation wavelength of 530 nm and emission wavelength of 590 nm. For both assays, at least three independent experiments (or two in case of poor activity) were performed, each with triplicates per concentration level, and the 50 % inhibitory concentrations (IC50) relative to untreated controls were interpolated from concentration‐effect curves.

[9] = test system: A549; conditions: A549 multicellular spheroids, 96 h drug exposure
Procedure: as §4, §5

[10] = test system: HCT‐116; conditions: HCT‐116 multicellular spheroids, 96 h drug exposure
Procedure: as §4, §5

[11] = test system: human cancer cell lines CH1/PA‐1, SW480, A549; conditions: tested cancer cell lines
Procedure: Cytotoxicity of the compounds in monolayer cultures was determined by the colorimetric MTT assay (MTT=3‐(4,5‐dimethyl‐2‐thiazolyl)‐2,5‐diphenyl‐2H‐tetrazolium bromide). 1×10^3 CH1/PA‐1, 2×10^3 SW480 and 3×10^3 A549 cells were seeded in 100 μL supplemented MEM per well into 96‐well flat‐bottom microculture plates. […] After 96 h, the drug‐containing medium was replaced with 100 μL of RPMI 1640/MTT mixture [6 parts of RPMI 1640 medium (supplemented with 10 % heat‐inactivated fetal bovine serum and 4 mM L‐glutamine), 1 part of MTT solution in phosphate‐buffered saline (5 mg mL^−1)]. After incubation for 4 h, the mixture was replaced with 150 μL DMSO per well to dissolve the formazan product formed by viable cells. Optical densities at 550 nm (and at a reference wavelength of 690 nm) were measured with a microplate reader (ELx808, Bio‐Tek).

[12] = SW480, MTT assay, exposure time 96 h, means ± SDs

## CC1=C2[O][Rh+]([Cl])[S]=C2C=CN1C.Cc1c(C)c(C)[c-](C)c1C [Compound 5 a, Chlorido[1,2‐dimethyl‐3‐oxo‐κO‐pyridine‐4(1H)‐thionato‐κS](η^5‐1,2,3,4,5‐pentamethylcyclopentadienyl)rhodium(III)]
[1]
  φ0 (chromatographic lipophilicity index): 5.91
[2]
  IC50: 11 ± 2 µM
[3]
  IC50: 117 ± 19 µM
[4]; [12]
  IC50: 5.5 ± 1.1 µM
[4]; SW480, as listed in Table 3
  IC50: 5.54 ± 1.07 µM
[5]; CH1/PA-1, 10 µM
  Cell cycle distribution G1, %: 28 ± 1%
  Cell cycle distribution G2/M, %: 28 ± 5%
  Cell cycle distribution S, %: 44 ± 5%
  Relative change in cell cycle distribution G1, %: -12%
  Relative change in cell cycle distribution G2/M, %: 4%
  Relative change in cell cycle distribution S, %: 8%
[5]; CH1/PA-1, 20 µM
  Cell cycle distribution G1, %: 27 ± 5%
  Cell cycle distribution G2/M, %: 32 ± 4%
  Cell cycle distribution S, %: 41 ± 5%
  Relative change in cell cycle distribution G1, %: -13%
  Relative change in cell cycle distribution G2/M, %: 8%
  Relative change in cell cycle distribution S, %: 5%
[5]; CH1/PA-1, 40 µM
  Cell cycle distribution G1, %: 26 ± 6%
  Cell cycle distribution G2/M, %: 31 ± 2%
  Cell cycle distribution S, %: 42 ± 1%
  Relative change in cell cycle distribution G1, %: -14%
  Relative change in cell cycle distribution G2/M, %: 7%
  Relative change in cell cycle distribution S, %: 6%
[5]; CH1/PA‐1 cells, 40 μM
  shift of cell cycle distribution towards S and G2/M phases in total: up to 14%
[6]; SW480, 5 µM
  Cell cycle distribution G1, %: 44 ± 1%
  Cell cycle distribution G2/M, %: 26 ± 2%
  Cell cycle distribution S, %: 30 ± 4%
  Relative change in cell cycle distribution G1, %: -4%
  Relative change in cell cycle distribution G2/M, %: 7%
  Relative change in cell cycle distribution S, %: -3%
[6]; SW480, 10 µM
  Cell cycle distribution G1, %: 38 ± 4%
  Cell cycle distribution G2/M, %: 20 ± 4%
  Cell cycle distribution S, %: 42 ± 1%
  Relative change in cell cycle distribution G1, %: -10%
  Relative change in cell cycle distribution G2/M, %: 1%
  Relative change in cell cycle distribution S, %: 9%
[6]; SW480, 20 µM
  Cell cycle distribution G1, %: 46 ± 3%
  Cell cycle distribution G2/M, %: 12 ± 1%
  Cell cycle distribution S, %: 42 ± 2%
  Relative change in cell cycle distribution G1, %: -2%
  Relative change in cell cycle distribution G2/M, %: -7%
  Relative change in cell cycle distribution S, %: 9%
[6]; 10 μM
  decrease in G1 phase: 10%
[7]; 50 μM
  Cellular accumulation: 118±35 fg/cell
[8]
  IC50: 144 ± 7 µM
[9]
  IC50: 367 ± 24 µM
[10]
  IC50: 140 ± 20 µM

## Chlorido[1‐benzyl‐2‐methyl‐3‐oxo‐κO‐pyridine‐4(1H)‐thionato‐κS](η^5‐1,2,3,4,5‐pentamethylcyclopentadienyl)rhodium(III) [Compound 5 c]
[2]
  IC50: 0.37 ± 0.04 µM
[3]
  IC50: 0.72 ± 0.11 µM
[4]; [12]
  IC50: 0.28 ± 0.02 µM
[4]; SW480, as listed in Table 3
  IC50: 0.28 ± 0.02 µM
[5]; CH1/PA-1, 1.25 µM
  Cell cycle distribution G1, %: 40 ± 14%
  Cell cycle distribution G2/M, %: 22 ± 7%
  Cell cycle distribution S, %: 38 ± 7%
  Relative change in cell cycle distribution G1, %: 0%
  Relative change in cell cycle distribution G2/M, %: -2%
  Relative change in cell cycle distribution S, %: 2%
[5]; CH1/PA-1, 2.5 µM
  Cell cycle distribution G1, %: 34 ± 5%
  Cell cycle distribution G2/M, %: 24 ± 4%
  Cell cycle distribution S, %: 42 ± 3%
  Relative change in cell cycle distribution G1, %: -6%
  Relative change in cell cycle distribution G2/M, %: 0%
  Relative change in cell cycle distribution S, %: 6%
[5]; CH1/PA-1, 5 µM
  Cell cycle distribution G1, %: 30 ± 10%
  Cell cycle distribution S, %: 42 ± 6%
  Relative change in cell cycle distribution G1, %: -10%
  Relative change in cell cycle distribution G2/M, %: 4%
  Relative change in cell cycle distribution S, %: 6%
[5]; CH1/PA‐1 cells, 2.5 μM
  decrease in G1 phase: 6%
[6]; SW480, 2.5 µM
  Cell cycle distribution G1, %: 44 ± 10%
  Cell cycle distribution G2/M, %: 20 ± 6%
  Cell cycle distribution S, %: 36 ± 1%
  Relative change in cell cycle distribution G1, %: -4%
  Relative change in cell cycle distribution G2/M, %: 1%
  Relative change in cell cycle distribution S, %: 3%
[6]; SW480, 5 µM
  Cell cycle distribution G1, %: 44 ± 5%
  Cell cycle distribution G2/M, %: 17 ± 4%
  Cell cycle distribution S, %: 39 ± 1%
  Relative change in cell cycle distribution G1, %: -4%
  Relative change in cell cycle distribution G2/M, %: -2%
  Relative change in cell cycle distribution S, %: 6%
[6]; SW480, 10 µM
  Cell cycle distribution G1, %: 50 ± 2%
  Cell cycle distribution G2/M, %: 16 ± 5%
  Cell cycle distribution S, %: 34 ± 5%
  Relative change in cell cycle distribution G1, %: 2%
  Relative change in cell cycle distribution G2/M, %: -3%
  Relative change in cell cycle distribution S, %: 1%
[6]; at applicable concentrations
  decrease in G1 phase: < 9%
[11]
  IC50 values, in words: high nanomolar range
[7]; 20 μM
  Cellular accumulation: 855±66 fg/cell
[8]
  IC50: 59 ± 10 µM
[9]
  IC50: 79 ± 5 µM
[10]
  IC50: 62 ± 1 µM
